US5849526A, “Use of linalool synthase in genetic engineering of scent production” (The Regents of the University of Michigan, priority 1996, dated 1998)
Like-named read-outs stand apart in the source and are kept apart here.

What was measured:
[1] = target: T1, C. breweri S-linalool synthase (Clarkia breweri, UniProt Q96376); test: S-linalool synthase (LIS) enzyme assay: conversion of [1-3H]-GPP to linalool, hexane/pentane overlay, scintillation counting or radio-GC; format: biochemical; settings: for rate of conversion to linalool relative to the rate for GPP: LPP enantiomers tested as alternate substrates; for Rate (substrate specificity, relative to GPP = 100%): putative substrates tested at 12 μM, averages and SE of four replicate determinations; for whether the divalent metal ion supports the enzymatic reaction (Neither ... nor ... support): at 1 to 10 mM, as the chloride salts; for efficiency of divalent metal ion as cofactor (in words): Mg2+ substituting for Mn2+; for effect of detergent on enzyme activity: 0.1% w/v (SDS at similar levels); for Specific Activity: by purification step, starting material 10 g excised stigmata
T1 construct: active as monomer; not recombinant
T1 sequence (Q96376 1-870): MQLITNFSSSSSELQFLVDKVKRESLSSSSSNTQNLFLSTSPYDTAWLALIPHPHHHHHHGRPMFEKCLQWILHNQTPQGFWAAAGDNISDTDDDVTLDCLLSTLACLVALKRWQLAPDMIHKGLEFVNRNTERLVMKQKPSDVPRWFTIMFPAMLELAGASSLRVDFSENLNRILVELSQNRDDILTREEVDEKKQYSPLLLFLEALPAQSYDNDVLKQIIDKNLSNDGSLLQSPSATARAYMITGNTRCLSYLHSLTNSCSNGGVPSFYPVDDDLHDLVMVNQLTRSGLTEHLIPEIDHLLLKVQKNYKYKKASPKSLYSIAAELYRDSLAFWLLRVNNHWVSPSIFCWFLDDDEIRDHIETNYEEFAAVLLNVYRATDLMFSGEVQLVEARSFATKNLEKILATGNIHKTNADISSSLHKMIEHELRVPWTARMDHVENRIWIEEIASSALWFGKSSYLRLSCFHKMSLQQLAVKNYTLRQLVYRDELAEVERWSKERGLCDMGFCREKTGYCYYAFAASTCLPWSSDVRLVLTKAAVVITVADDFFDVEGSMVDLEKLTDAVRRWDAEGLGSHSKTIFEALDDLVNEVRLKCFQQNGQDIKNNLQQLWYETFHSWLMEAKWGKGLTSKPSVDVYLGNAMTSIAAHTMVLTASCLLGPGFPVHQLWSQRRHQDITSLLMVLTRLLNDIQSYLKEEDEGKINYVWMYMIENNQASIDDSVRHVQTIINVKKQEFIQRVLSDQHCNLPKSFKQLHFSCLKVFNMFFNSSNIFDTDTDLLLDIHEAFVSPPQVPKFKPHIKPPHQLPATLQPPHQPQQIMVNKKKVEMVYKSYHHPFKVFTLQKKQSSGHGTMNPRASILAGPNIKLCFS
Protocol: The crude extract (100 ml) was loaded onto a DEAE-cellulose (0.7 cm diam.×6 cm) column (Whatman, DE52) that was pre-equilibrated with a solution containing 50 mM BisTris, pH 6.9, 10% glycerol and 10 mM DTT (buffer A) at a flow rate of about 1 ml/min. Following elution of the unadsorbed material, the column was washed with 50 ml of buffer A followed by an additional 20 ml of buffer A containing 150 mM KCl. LIS activity was then eluted with 20 ml of buffer A containing 250 mM KCl. Fractions with the highest LIS activity (about 60% yield, 10 ml), were either pooled and used immediately, or frozen at -20° C. for up to 1 month with less than 20% loss of activity. The DEAE-cellulose purified fractions were diluted 2-fold with ice-cold buffer A, and loaded on a 1 cm diam.×10cm hydroxyapatite column (Bio-Gel HT, Bio-Rad, Richmond, Calif.) installed in a Pharmacia FPLC apparatus, and pre-equilibrated with 100 ml of buffer A, at a flow rate of 0.5 ml/min. After the enzyme was loaded, the column was washed with 20 ml buffer A and then eluted using a linear gradient (100 ml) from 0 to 200 mM Na-phosphate in buffer A. The fractions containing LIS activity, eluting at about 100 mM Na-phosphate, were pooled (10 to 16 ml) and loaded on a pre-packed Pharmacia Mono-Q HR 5/5 FPLC column equilibrated with buffer A. After a 20-ml wash with buffer A, a steep linear gradient from 0 to 100 mM KCl in buffer A (10 ml) was applied, followed by a more gradual linear gradient from 100 to 400 mM KCl in buffer A (100 ml, 0.25 ml/min). The enzyme consistently eluted at about 220 mM KCl. After dialysis to assay conditions, the enzyme at this level of purity was used for characterization.
After incubation, the assay mixture was briefly mixed again to extract non-polar products into the organic layer. An 800-μl aliquot of the hexane phase was placed into a scintillation vial containing 10 ml of a cocktail of 0.4% (w/v) Omnifluor (Du Pont, Boston Mass.) dissolved in 30% (v/v) ethanol in toluene and counted in a Packard TriCarb 460 CD scintillation spectrometer (efficiency for ^3 H=36%) to determine the total monoterpene synthase activity. To examine in detail the products formed, radio-GC was performed as described (Croteau et al., 1990). For this purpose, the 2 ml pentane extract containing the enzymatically formed ^3 H-labeled products was removed, dried by passage through MgSO4, and internal standards were added (10 μg each of linalool and geraniol; nerol was UD also included in initial experiments). The mixture was then concentrated to ~10 μl under a gentle stream of nitrogen, and an aliquot (2-3 μl) was injected into a Gow-Mac 550P radio gas chromatograph fitted with a 0.125 in ×12 ft stainless steel column loaded with AT-1000 (Gas Chrom Q, Alltech), attached to a Packard 894 gas proportional counter. The initial column temperature was 170° C. and, following a 5 min hold, was programmed at 5° C./min to 220° C., using He at a flow rate of 50 ml/min. Control incubations included the omission of enzyme extract, the use of boiled enzyme extract, the omission of substrate, and the omission of divalent cations. All of these controls produced negligible radioactivity in the hexane phase of the enzyme assay mixtures.
The enantiomeric composition of linalool samples was determined on a fused silica capillary column (0.25 mm internal diam.×30 m) coated with a 0.25 μm film of β-cyclodextrin (J & W Scientific, Cyclodex B), operated at an initial temperature of 75° C. for 15 min followed by a rise of 5° C./min to 200° C. H2 at a head pressure of 13.5 psi was used as carrier gas (Alonso et al., 1992).

[2] = target: T2, LIS (linalool synthase) in crude extracts (Clarkia breweri, UniProt Q96376); test: LIS activity assay in crude extracts of open C. breweri flowers; format: biochemical
T2 sequence (Q96376 1-870): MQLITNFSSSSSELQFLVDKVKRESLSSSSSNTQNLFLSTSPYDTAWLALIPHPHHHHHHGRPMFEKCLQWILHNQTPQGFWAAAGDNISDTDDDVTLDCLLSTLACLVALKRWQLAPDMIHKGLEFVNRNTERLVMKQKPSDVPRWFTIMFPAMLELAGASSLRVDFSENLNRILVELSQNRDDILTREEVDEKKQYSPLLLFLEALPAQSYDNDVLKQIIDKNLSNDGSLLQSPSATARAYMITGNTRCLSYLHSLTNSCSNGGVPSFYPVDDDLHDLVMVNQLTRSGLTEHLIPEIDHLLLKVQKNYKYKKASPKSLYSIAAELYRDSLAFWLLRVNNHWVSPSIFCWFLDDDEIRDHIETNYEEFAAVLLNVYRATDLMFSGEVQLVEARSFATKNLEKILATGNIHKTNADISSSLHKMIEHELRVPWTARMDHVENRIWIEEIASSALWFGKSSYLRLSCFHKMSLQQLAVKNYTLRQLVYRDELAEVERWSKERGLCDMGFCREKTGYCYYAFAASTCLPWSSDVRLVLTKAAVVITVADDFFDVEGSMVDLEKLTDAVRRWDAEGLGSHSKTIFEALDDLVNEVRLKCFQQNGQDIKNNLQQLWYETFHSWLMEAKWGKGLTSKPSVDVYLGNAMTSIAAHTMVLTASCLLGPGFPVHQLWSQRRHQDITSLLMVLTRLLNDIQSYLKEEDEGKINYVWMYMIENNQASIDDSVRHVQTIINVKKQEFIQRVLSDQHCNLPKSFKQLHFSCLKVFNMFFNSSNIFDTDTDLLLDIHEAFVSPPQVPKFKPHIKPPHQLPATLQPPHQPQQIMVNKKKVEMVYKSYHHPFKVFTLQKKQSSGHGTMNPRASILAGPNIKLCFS
Protocol: LIS activity was assayed by combining crude extract with ^3 H-GPP (or other substrates) in a buffer containing co-factors. LIS activity was monitored by counting the radioactive linalool extracted from the assay buffer with hexane (GPP is not soluble in hexane) in a scintillation counter. Radio-GC analyses (Croteau et al., 1990) were also undertaken because GPP could be enzymatically hydrolyzed by non-specific phosphatases to produce geraniol, or the tissue might contain other monoterpene synthases, and geraniol or the other monoterpenes that may be produced are also soluble in the organic phase. […] Furthermore, with a special stereo-GC column it was also shown that the product of the reaction is exclusively S-linalool.
A crude protein extract was prepared by macerating flower parts in a microcentrifuge tube in the presence of ice-cold buffer (10 volumes:fresh weight) containing 50 mM BisTris-HCl pH 6.9, 10 mM DTT, 5 mM Na2 S2 O5, 1% (w/v) PVP-40 and 10% (v/v) glycerol. The slurry was centrifuged for 10 min and the supernatant transferred to a new tube. For each time point, extracts of 3 to 5 flowers from 3 different plants were combined. […]
After 1 h, the tube was vortexed again and the amount of the radioactive linalool product, which partitioned into the organic phase, was determined by an LSC of an aliquot. […]

[3] = divalent metal ion required for activity, read-out: Km of divalent metal ion cofactor

## [3H]C=C[C@@](C)(CCC=C(C)C)OP(=O)(O)OP(=O)(O)O [3R-[1-^3 H]Linalyl pyrophosphate, reference compound]
[1]
  rate of conversion to linalool relative to the rate for GPP: essentially not converted to linalool
  Rate (substrate specificity, relative to GPP = 100%): 0.6 ± 0.6%

## [3H]C=C[C@](C)(CCC=C(C)C)OP(=O)(O)OP(=O)(O)O [3S-[1-^3 H]Linalyl pyrophosphate, reference compound]
[1]
  rate of conversion to linalool relative to the rate for GPP: 15%
  Rate (substrate specificity, relative to GPP = 100%): 15.1 ± 6.0%

## [Ca+2] [Ca^2+]
[1]
  whether the divalent metal ion supports the enzymatic reaction (Neither ... nor ... support): Neither

## [Co+2] [Co^2+]
[1]
  whether the divalent metal ion supports the enzymatic reaction (Neither ... nor ... support): Neither

## [Cu+2] [Cu^2+]
[1]
  whether the divalent metal ion supports the enzymatic reaction (Neither ... nor ... support): Neither

## CC(C)=CCC/C(C)=C/COP(=O)(O)OP(=O)(O)O [GPP, Geranyl Pyrophosphate, reference compound]
[1]; calculated from a Lineweaver-Burk plot, purified enzyme, read-out: Km value for GPP
  Km: 0.9 µM
[1]
  Rate (substrate specificity, relative to GPP = 100%): 100 ± 9.6%
[1]; substrate at 12 μM, Table 6 footnote b
  Rate with GPP corresponding to 100%: 22. 2 pkat/mg protein
[2]
  cofactor / substrate requirement of LIS activity: the only substrate

## [Mg+2] [Mg^2+]
[1]
  efficiency of divalent metal ion as cofactor (in words): half the rate
[1]; [3]
  Km: 330 µM

## [Mn+2] [Mn^2+]
[1]
  efficiency of divalent metal ion as cofactor (in words): most efficient
[1]; [3]
  Km: 45 µM

## [Zn+2] [Zn^2+]
[1]
  whether the divalent metal ion supports the enzymatic reaction (Neither ... nor ... support): Neither

## CCCCCCCCCCCCOS(=O)(=O)[O-].[Na+] [sodium dodecyl sulfate, reference compound]
[1]
  effect of detergent on enzyme activity: complete loss of activity

## Hydroxyapatite
[1]
  Specific Activity: 44.1 pkat mg^-1
[1]; hydroxyapatite-purified enzyme
  specific activity of preparation loaded on Superdex 75: 44.1 pkat/mg protein

## Triton-X-100 [reference compound]
[1]
  effect of detergent on enzyme activity: no effect on enzyme activity

B1: LIS: S-linalool synthase purified from stigmata of C. breweri (Mono Q purified enzyme used for characterization), SEQ ID NO:2 (protein)
chain: MQLITNFSSSSSELQFLVDKVKRESLSSSSSNTQNLFLSTSPYDTAWLALIPHPHHHHHHGRPMFEKCLQWILHNQTPQGFWAAAGDNISDTDDDVTLDCLLSTLACLVALKRWQLAPDMIHKGLEFVNRNTERLVMKQKPSDVPRWFTIMFPAMLELAGASSLRVDFSENLNRILVELSQNRDDILTREEVDEKKQYSPLLLFLEALPAQSYDNDVLKQIIDKNLSNDGSLLQSPSATARAYMITGNTRCLSYLHSLTNSCSNGGVPSFYPVDDDLHDLVMVNQLTRSGLTEHLIPEIDHLLLKVQKNYKYKKHHQNHCIALLRNYTGFISIFGCFESIITGYHHQFFCWFLDDDEIRDHIETNYEEFAAVLLNVYRATDLMFSGEVQLVEARSFATKNLEKILATGNIHKTNADISSSLHKMIEHELRVPWTARMDHVENRIWIEEIASSALWFGKSSILRLSCFHKMSLQQLAVKNYTLRQLVYRDELAEVERWSKERGLCDMGFCREKTGYCYYAFAASTCLPWSSDVRLVLTKAAVVITVADDFFDVEGSMVDLEKLTDAVRRWDAEGLGSHSKTIFEALDDLVNEVRLKCFQQNGQDIKNNLQQLWYETFHSWLMEAKWGKGLTSKPSVDVYLGNAMTSIAAHTMVLTASCLLGPGFPVHQLWSQRRHQDITSLLMVLTRLLNDIQSYLKEEDEGKINYVWMYMIENNQASIDDSVRHVQTIINVKKQEFIQRVLSDQHCNLPKSFKQLHFSCLKVFNMFFNSSNIFDTDTDLLLDIHEAFVSPPQVPKFKPHIKPPHQLPATLQPPHQPQQIMVNKKKVEMVYKSYHHPFKVFTLQKKQSSGHGTMNPRASILAGPNIKLCFS
[1]; broad optimum
  pH optimum: 7.4
[1]
  Specific Activity: 395 pkat mg^-1
[1]; hexane and pentane
  stability to vigorous vortexing with non-polar organic solvents: very stable
[1]; over 2 h at 4° C.
  loss of activity in the absence of DTT: > 95%
[1]; pH 6.4 and 8.4
  rate at pH 6.4 and 8.4 relative to the optimal: ~ 80%
[1]; under saturating conditions
  turnover number: 31.6 s⁻¹
